Measurements: paper PMC4947906, “Two fatty acyl reductases involved in moth pheromone biosynthesis” (Scientific Reports, 2016)

Experiments:
SexpgFAR I = molecular target: T1, SexpgFAR I (Spodoptera exigua, UniProt A0A0F6NS86); assay: yeast expression, fatty alcohol by GC-MS; format: cell-based; conditions: fed as methyl ester 0.5 mM, 48 h, 30 °C, the acyl-CoA itself was not added
T1 construct: gene pgFARI; pYES2.1/V5-His TOPO in S. cerevisiae INVSc1
T1 sequence (A0A0F6NS86 1-459): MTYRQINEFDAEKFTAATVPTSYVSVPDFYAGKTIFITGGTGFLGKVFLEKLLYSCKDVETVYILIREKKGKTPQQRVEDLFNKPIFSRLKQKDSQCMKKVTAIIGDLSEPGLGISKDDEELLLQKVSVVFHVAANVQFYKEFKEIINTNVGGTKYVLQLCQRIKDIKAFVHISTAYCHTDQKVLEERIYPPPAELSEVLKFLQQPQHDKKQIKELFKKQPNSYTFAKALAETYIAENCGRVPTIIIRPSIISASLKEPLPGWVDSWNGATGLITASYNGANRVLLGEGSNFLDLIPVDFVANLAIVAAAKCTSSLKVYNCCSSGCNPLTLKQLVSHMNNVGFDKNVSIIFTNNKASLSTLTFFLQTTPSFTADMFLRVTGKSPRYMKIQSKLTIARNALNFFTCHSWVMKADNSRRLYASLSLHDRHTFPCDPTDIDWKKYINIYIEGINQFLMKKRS

SexpgFAR II = molecular target: T2, SexpgFAR II (Spodoptera exigua, UniProt A0A0P0IV71); assay: yeast expression, fatty alcohol by GC-MS; format: cell-based; conditions: fed as methyl ester 0.5 mM, 48 h, 30 °C; the acyl-CoA itself was not added
T2 construct: gene pgFARII; pYES2.1/V5-His TOPO in S. cerevisiae INVSc1
T2 sequence (A0A0P0IV71 1-454): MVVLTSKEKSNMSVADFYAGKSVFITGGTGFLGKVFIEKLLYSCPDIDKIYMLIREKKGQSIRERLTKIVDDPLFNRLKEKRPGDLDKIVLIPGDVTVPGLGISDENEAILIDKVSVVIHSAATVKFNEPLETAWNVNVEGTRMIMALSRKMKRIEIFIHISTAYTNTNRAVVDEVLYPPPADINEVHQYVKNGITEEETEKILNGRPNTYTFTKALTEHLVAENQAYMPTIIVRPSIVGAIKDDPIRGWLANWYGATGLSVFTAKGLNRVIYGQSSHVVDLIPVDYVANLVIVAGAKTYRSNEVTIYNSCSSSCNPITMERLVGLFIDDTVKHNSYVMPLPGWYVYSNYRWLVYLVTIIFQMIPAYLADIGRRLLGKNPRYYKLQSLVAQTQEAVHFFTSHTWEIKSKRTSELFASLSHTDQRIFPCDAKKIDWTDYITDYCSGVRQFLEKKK

Row | Compound | yeast expression, fatty alcohol by GC-MS (SexpgFAR II) | also measured
1 | CCCC/C=C\CCCCCCCCCC(=O)OC [Z11-16:acyl] | – | yeast expression, fatty alcohol by GC-MS (SexpgFAR I): SexpgFAR I produced significantly more Z11-16:OH than SexpgFAR II
2 | C/C=C/C/C=C\CCCCCCCC(=O)OC [Z9E12-14:acyl] | SexpgFAR II exhibits specificity for Z9-14:acid and Z9E12-14:acid precursors | –
3 | CCCC/C=C\CCCCCCCC(=O)OC [Z9-14:acyl] | SexpgFAR II exhibits specificity for Z9-14:acid and Z9E12-14:acid precursors | –
4 | CCCCCCCCCCCCCCCC(=O)SCCNC(=O)CCNC(=O)[C@H](O)C(C)(C)COP(=O)(O)OP(=O)(O)OC[C@H]1O[C@@H](n2cnc3c(N)ncnc32)[C@H](O)[C@@H]1OP(=O)(O)O [C16:Acyl] | – | yeast expression, fatty alcohol by GC-MS (SexpgFAR I; also endogenous C16 acyl of yeast): SexpgFAR I-transformed yeast cells produced a significantly higher quantity of C16 fatty alcohol
